Laboratory results as given in US20110217293A1, “Uses of morelloflavone” (priority 2008, published 2011).
Several values for one entry are separate records, joined by “and”; a condition that tells them apart may be missing. Identical values can stand only once. Entries after “also recorded” stand apart in the source; their conditions may differ. Like-named read-outs stand apart in the source and are kept apart here.

Columns and labels:
[1] = test system: vascular smooth muscle cells; assay: Cell cycle analysis by flow cytometry; type: cell-based, mouse; details: concentrations up to 10 mM (10 μM), 24 hr
Description: Mouse vascular smooth muscle cells, isolated as described (13), were maintained in 231 media (Cascade Biologics, Portland, Oreg.) supplemented with SMGS (Cascade Biologics) in a humidified incubator at 37° C. with 5% CO2. Cells from passages 4-9 were used in all experiments. All experiments were performed in subconfluent, unsynchronized cells growing in SMGS except for the lamellipodium formation assay.
Vascular smooth muscle cells (1×106) were seeded onto 10-cm dishes and treated with various concentrations of morelloflavone. After 24 hr incubation, the cells were fixed with 70% ethanol at 4° C. overnight, treated with RNAse in PBS, stained with propidium iodide (Sigma, St. Louis, Mo.), and subjected to flow cytometric DNA content analysis using Epics XL (Beckman-Coulter, Miami, Fla.). The percentages of cells in G1, S, and G2/M phases were determined using Multi-cycle system software (Phoenix Flow System, San Diego, Calif.).

[2] = Serum morelloflavone level by HPLC; type: in vivo, mouse; details: treated apoE−/− mice, oral 0.15% w/w diet, at sacrifice
Description: Measurements were performed at a magnification of 200 using a Scion Image analysis computer program (Frederick, Md.). Data were obtained from the first 2 levels where endothelial denudation occurred. For each artery, the luminal area, area inside the internal elastic lamina (IELA), and the area encircled by external elastic lamina-IELA were measured. The intimal area (IA) was calculated as the IELA minus luminal area. For the determination of serum morelloflavone levels, animal sera were first digested by proteinase K in the presence of 0.01% SDS. Morelloflavone was then extracted into ethyl acetate and lyophilized.
The quantification of morelloflavone was performed by HPLC as described with following modifications. The pure morelloflavone was diluted to varying concentrations ([…]), aliquoted into multiple tubes, and lyophilized. The samples were dissolved in […] of 25% acetonitrile/0.55% acetic acid 10 of which […] were injected into a Vydac C-18 reversed phase HPLC column (Grace Davison Discovery Sciences, Deerfield, Ill.) in an Agilent 1100 HPLC system (San Jose, Calif.). […] The limit of detection (LOD) is defined as the concentration of morelloflavone that yielded a signal to noise of 2:1, and was calculated at 1.06 mM, from the 20 mM standard peak (signal to noise=37.6:1). […]

[3] = test system: plasma lipid peroxidation; assay: Thiobarbituric acid reactive substances (TBARS) assay; type: in vivo, mouse; details: treated Ldlr−/−Apobec1−/− mice, N=12
Description: EDTA-added mouse plasma was stored at −80° C. until the assay. The assay was performed using a commercially available kit according to the manufacturer's instructions. The degree of plasma lipid peroxidation was expressed in terms of equivalent malondialdehyde (MDA) concentration (Cayman Chemical Co., Ann Arbor, Mich.).

[4] = test system: Cdc42; assay: GTPase activation assay, Cdc42; type: cell-based, mouse; set-up: dose or concentration left out as unconfirmed
Description: To assess the phosphorlyation status of ERK, […] of whole cell lysates was loaded onto SDS-PAGE, and Western blot analysis was done using anti-p-ERK (Santa Cruz; E-4; sc-7383) and anti-ERK (Santa Cruz; K-23; sc-94) antibodies. To detect active RhoA, Rac1 and Cdc42, generated GST-tagged RhoA binding domain of Rhotekin protein (GST-Rhotekin-RBD) and GST-tagged p21-binding domain of p21-activated kinase 1 (PAK1)(GST-PAK1-PBD) were first generated. Briefly, E. coli BL21 cells transformed with pGEX4T-PAK1-PBD or pGEX4T-Rh,otekin-RBD were grown at 37° C. and expression of recombinant protein was induced by addition of 0.1 mM IPTG for 3 hours. Cells were resuspended in lysis buffer (50 mM Tris-HCl, pH 8.0, 10% glycerol, 20% sucrose, 2 mM DTT, 1 mg/ml leupeptin, 1 mg/ml pepstatin, and 1 mg/ml aprotinin), sonicated, and centrifuged at 4° C. for 30 min at 45,000 g. The supernatant was incubated with glutathione sepharose 4B beads (GE-Amersham, Piscataway, N.J.) for 1 hour at 4° C., and then washed 3 times in lysis buffer. Using these GST-proteins, GTPase activation assays were performed as described. […]

[5] = test system: vascular smooth muscle cells; assay: MTT cell death (viability) assay; type: cell-based, mouse; set-up: dose or concentration left out as unconfirmed; details: 48 hrs
Description: Mouse vascular smooth muscle cells, isolated as described (13), were maintained in 231 media (Cascade Biologics, Portland, Oreg.) supplemented with SMGS (Cascade Biologics) in a humidified incubator at 37° C. with 5% CO2. Cells from passages 4-9 were used in all experiments. All experiments were performed in subconfluent, unsynchronized cells growing in SMGS except for the lamellipodium formation assay. Vascular smooth muscle cells were plated at 1×10^4 cells per well in 96-well culture plates and incubated overnight. The cells were treated with various concentrations of morelloflavone for 48 hrs. Then, the cells were exposed to MTT labeling reagent at 10 mg/mL for 4 hrs and solubilized in 0.01 N HCl containing 10% SDS overnight. Formed formazan was measured via spectrophotometry at 600 nm.

## O=C1c2c(O)cc(O)cc2O[C@H](c2ccc(O)cc2)[C@H]1c1c(O)cc(O)c2c(=O)cc(-c3ccc(O)c(O)c3)oc12 [morelloflavone, 5,7, 4′, 5″, 7″, 3″, 4″-heptahydroxy-[3,8″]-flavonylflavanone]
[1]
  effect on cell cycle progression: did not significantly affect; also recorded: does not affect cell cycle progression
[2]
  serum concentration of morelloflavone: 1370 nM and 1400 nM
[3]
  Thiobarbituric acid reactive substances concentration (plasma): 6.33 ± 1.47 µM
[4]
  activation of Cdc42: blocks the activation
[4]; concentration not given
  activation of Cdc42: no significant effect; also recorded: without affecting
[5]
  cytotoxicity / cell survival (MTT): no cytotoxicity; also recorded: does not affect; also recorded: not cytotoxic; also recorded: does not induce cytotoxicity
